Data published in the kinase profiling compilation of Christmann-Franck et al. (2016).

Tests used:
PDPK1 (human) = PDPK1 (human) (UniProt O15530); assay: radiometric filter-binding kinase assay
MET (human) = MET (human) (UniProt P08581); assay: radiometric filter-binding kinase assay
PRKDC (human) = PRKDC (human) (UniProt P78527); assay: radiometric filter-binding kinase assay
AXL (human) = AXL (human) (UniProt P30530); assay: radiometric filter-binding kinase assay
CSF1R (human) = CSF1R (human) (UniProt P07333); assay: radiometric filter-binding kinase assay
TEK (human) = TEK (human) (UniProt Q02763); assay: radiometric filter-binding kinase assay
KDR (human) = KDR (human) (UniProt P35968); assay: radiometric filter-binding kinase assay
AKT1 (human) = AKT1 (human) (UniProt P31749); assay: KINOMEscan competition binding; details: compound 1.0 µM
Chain of AKT1 (human) (P31749 whole entry, looked up): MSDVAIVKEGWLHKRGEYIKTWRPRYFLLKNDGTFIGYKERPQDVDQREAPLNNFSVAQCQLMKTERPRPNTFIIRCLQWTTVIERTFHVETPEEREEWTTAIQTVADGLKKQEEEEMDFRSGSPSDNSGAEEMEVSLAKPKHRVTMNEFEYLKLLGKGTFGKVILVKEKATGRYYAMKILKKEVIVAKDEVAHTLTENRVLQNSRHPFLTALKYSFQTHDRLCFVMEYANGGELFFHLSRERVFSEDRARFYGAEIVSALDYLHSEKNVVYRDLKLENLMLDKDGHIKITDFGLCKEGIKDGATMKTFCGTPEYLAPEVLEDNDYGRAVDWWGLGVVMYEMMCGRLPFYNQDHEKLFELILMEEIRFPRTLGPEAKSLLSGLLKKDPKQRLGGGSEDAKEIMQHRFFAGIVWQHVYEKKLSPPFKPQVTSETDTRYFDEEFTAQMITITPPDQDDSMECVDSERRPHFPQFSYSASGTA

[1] = tested on: EGFR (human), P00533 [746-750 del]; assay: KINOMEscan competition binding; details: compound 1.0 µM
Chain of EGFR (human), P00533 [746-750 del] (P00533 whole entry, looked up, stated change not applied): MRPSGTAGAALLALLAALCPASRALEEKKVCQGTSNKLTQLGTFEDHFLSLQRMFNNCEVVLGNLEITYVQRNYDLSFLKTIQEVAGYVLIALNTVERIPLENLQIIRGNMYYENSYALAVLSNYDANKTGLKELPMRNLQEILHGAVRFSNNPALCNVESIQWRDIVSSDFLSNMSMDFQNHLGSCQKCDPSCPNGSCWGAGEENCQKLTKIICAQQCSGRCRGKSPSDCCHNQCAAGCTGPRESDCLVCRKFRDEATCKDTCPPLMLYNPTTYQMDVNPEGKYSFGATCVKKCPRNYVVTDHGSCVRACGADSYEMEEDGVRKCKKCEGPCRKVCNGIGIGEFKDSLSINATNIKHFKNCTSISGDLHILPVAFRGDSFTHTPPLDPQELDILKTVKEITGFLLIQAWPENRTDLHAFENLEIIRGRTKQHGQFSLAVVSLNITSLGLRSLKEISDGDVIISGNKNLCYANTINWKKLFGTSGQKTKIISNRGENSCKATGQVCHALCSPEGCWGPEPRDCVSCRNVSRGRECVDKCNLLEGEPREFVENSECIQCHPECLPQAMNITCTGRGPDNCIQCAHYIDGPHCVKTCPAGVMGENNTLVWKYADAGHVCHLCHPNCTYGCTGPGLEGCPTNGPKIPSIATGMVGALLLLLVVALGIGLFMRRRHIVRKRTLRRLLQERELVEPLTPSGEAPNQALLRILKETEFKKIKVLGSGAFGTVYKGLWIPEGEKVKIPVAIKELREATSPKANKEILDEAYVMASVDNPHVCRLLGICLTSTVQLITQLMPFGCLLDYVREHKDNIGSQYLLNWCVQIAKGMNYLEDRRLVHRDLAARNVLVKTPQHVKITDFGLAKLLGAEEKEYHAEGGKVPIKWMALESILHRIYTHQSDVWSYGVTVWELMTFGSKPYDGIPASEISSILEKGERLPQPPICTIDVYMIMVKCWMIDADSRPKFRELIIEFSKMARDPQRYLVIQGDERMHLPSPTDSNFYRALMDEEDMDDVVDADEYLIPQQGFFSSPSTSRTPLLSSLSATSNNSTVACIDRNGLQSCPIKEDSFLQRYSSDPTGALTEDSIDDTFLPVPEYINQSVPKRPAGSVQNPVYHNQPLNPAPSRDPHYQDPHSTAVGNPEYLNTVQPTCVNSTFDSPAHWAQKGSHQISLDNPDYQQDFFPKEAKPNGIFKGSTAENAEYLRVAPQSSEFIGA

EPHB2 (human) = EPHB2 (human) (UniProt P29323); assay: KINOMEscan competition binding; details: compound 1.0 µM
EPHA6 (human) = EPHA6 (human) (UniProt Q9UF33); assay: KINOMEscan competition binding; details: compound 1.0 µM
PTK2B (human) = PTK2B (human) (UniProt Q14289); assay: KINOMEscan competition binding; details: compound 1.0 µM
MAP3K2 (human) = MAP3K2 (human) (UniProt Q9Y2U5); assay: KINOMEscan competition binding; details: compound 1.0 µM
CDK11B (human) = CDK11B (human) (UniProt P21127); assay: KINOMEscan competition binding; details: compound 1.0 µM
ROS1 (human) = ROS1 (human) (UniProt P08922); assay: KINOMEscan competition binding; details: compound 1.0 µM
RPS6KA4 KD1 (human) = RPS6KA4 KD1 (human) (UniProt O75676); assay: KINOMEscan competition binding; details: compound 1.0 µM
SGK110 (human) = SGK110 (human) (UniProt P0C264); assay: KINOMEscan competition binding; details: compound 1.0 µM
EPHA7 (human) = EPHA7 (human) (UniProt Q15375); assay: KINOMEscan competition binding; details: compound 1.0 µM
[2] = tested on: KIT (human), P10721 [D816V]; assay: KINOMEscan competition binding; details: compound 1.0 µM
Chain of KIT (human), P10721 [D816V] (P10721 whole entry D816V, looked up): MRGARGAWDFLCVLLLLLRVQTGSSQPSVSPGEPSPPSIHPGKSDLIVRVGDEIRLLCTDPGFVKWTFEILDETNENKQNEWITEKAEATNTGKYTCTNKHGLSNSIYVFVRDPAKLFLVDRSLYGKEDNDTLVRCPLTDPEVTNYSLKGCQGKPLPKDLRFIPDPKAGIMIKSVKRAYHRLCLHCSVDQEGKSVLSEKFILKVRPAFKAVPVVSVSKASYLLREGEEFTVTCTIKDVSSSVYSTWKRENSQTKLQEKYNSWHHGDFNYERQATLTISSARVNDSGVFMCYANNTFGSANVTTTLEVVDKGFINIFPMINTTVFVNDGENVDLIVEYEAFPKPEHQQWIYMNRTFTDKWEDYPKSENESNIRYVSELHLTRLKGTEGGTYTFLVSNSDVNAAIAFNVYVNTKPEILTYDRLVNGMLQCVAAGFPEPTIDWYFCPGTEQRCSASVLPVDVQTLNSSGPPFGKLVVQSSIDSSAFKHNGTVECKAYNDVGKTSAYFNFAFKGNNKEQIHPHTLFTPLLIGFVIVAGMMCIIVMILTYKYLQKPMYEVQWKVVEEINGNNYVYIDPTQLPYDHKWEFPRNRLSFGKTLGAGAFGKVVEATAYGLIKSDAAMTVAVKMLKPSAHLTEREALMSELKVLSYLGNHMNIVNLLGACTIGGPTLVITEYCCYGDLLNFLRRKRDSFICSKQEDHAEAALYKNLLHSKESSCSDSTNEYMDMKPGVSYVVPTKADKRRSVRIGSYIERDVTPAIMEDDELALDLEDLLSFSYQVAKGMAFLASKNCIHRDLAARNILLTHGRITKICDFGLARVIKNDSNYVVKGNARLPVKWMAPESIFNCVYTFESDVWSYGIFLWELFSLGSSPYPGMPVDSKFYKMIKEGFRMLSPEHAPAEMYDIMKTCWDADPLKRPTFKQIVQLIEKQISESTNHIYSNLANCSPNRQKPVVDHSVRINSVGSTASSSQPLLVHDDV

EPHA5 (human) = EPHA5 (human) (UniProt P54756); assay: KINOMEscan competition binding; details: compound 1.0 µM
MAPK1 (human) = MAPK1 (human) (UniProt P28482); assay: KINOMEscan competition binding; details: compound 1.0 µM
EPHA8 (human) = EPHA8 (human) (UniProt P29322); assay: KINOMEscan competition binding; details: compound 1.0 µM
Chain of EPHA8 (human) (P29322 whole entry, looked up): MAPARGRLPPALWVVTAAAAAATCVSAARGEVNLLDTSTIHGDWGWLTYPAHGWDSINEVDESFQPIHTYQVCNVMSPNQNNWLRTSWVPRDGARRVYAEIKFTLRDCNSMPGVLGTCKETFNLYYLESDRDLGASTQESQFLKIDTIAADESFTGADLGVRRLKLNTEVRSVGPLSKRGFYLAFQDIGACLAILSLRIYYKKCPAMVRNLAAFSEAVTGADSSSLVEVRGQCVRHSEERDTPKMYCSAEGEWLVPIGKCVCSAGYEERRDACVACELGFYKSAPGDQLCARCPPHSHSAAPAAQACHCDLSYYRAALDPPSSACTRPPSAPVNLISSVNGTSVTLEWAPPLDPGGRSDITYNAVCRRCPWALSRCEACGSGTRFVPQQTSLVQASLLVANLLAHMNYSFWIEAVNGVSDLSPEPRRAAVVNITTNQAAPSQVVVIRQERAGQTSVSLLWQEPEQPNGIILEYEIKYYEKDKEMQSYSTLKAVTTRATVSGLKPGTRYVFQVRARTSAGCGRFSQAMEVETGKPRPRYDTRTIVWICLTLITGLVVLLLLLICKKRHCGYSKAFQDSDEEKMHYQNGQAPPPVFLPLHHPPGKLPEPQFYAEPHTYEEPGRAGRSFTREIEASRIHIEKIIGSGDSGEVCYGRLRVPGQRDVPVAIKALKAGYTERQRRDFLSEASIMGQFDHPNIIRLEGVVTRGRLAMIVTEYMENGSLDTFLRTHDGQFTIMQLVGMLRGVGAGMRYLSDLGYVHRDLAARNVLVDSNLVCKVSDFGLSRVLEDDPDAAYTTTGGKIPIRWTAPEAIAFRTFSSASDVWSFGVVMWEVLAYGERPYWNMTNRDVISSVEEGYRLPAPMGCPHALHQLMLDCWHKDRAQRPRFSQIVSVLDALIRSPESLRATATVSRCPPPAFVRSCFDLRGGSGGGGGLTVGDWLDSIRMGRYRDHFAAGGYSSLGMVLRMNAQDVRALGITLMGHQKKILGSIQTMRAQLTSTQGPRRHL

ERN1 (human) = ERN1 (human) (UniProt O75460); assay: KINOMEscan competition binding; details: compound 1.0 µM
MAK (human) = MAK (human) (UniProt P20794); assay: KINOMEscan competition binding; details: compound 1.0 µM
EPHA4 (human) = EPHA4 (human) (UniProt P54764); assay: KINOMEscan competition binding; details: compound 1.0 µM
CDK14 (human) = CDK14 (human) (UniProt O94921); assay: KINOMEscan competition binding; details: compound 1.0 µM
RIOK1 (human) = RIOK1 (human) (UniProt Q9BRS2); assay: KINOMEscan competition binding; details: compound 1.0 µM
MLTK (human) = MLTK (human) (UniProt Q9NYL2); assay: KINOMEscan competition binding; details: compound 1.0 µM
ERBB3 (human) = ERBB3 (human) (UniProt P21860); assay: KINOMEscan competition binding; details: compound 1.0 µM
Chain of ERBB3 (human) (P21860 whole entry, looked up): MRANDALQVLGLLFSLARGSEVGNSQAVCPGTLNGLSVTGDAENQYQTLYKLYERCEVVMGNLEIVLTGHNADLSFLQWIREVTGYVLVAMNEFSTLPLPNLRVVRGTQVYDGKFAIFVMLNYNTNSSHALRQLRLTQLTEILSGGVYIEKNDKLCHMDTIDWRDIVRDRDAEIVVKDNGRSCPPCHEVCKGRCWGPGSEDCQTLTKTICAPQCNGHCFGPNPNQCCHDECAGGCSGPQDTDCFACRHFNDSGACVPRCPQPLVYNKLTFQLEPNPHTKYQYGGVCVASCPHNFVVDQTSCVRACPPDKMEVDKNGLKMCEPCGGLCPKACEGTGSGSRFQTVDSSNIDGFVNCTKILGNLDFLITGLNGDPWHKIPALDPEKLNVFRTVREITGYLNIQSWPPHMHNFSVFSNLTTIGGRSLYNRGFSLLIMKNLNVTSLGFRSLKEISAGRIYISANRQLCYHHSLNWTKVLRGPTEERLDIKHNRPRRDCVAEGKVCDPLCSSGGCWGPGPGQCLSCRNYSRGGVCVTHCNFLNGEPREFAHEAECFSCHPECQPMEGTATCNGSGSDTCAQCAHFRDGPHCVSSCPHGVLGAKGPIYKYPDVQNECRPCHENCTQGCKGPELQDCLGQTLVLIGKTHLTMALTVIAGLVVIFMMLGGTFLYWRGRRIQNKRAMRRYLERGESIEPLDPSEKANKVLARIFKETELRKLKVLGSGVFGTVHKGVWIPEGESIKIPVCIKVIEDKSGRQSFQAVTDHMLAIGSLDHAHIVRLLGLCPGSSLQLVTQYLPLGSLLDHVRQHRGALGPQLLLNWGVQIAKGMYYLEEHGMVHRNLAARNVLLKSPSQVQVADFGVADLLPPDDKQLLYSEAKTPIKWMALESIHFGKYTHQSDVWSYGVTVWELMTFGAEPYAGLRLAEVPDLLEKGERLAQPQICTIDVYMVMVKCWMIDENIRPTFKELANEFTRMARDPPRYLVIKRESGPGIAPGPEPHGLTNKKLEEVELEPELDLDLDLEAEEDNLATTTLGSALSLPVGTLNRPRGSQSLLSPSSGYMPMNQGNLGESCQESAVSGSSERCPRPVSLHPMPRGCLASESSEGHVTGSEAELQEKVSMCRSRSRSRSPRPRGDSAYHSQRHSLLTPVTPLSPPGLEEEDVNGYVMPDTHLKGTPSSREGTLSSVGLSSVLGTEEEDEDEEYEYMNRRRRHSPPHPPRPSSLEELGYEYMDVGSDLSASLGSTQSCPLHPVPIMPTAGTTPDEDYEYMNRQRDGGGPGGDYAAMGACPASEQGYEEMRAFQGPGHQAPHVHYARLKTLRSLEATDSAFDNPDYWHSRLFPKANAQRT

RPS6KA4 KD2 (human) = RPS6KA4 KD2 (human) (UniProt O75676); assay: KINOMEscan competition binding; details: compound 1.0 µM
PLK1 (human) = PLK1 (human) (UniProt P53350); assay: KINOMEscan competition binding; details: compound 1.0 µM
MKNK1 (human) = MKNK1 (human) (UniProt Q9BUB5); assay: KINOMEscan competition binding; details: compound 1.0 µM
[3] = tested on: FLT3 (human), P36888 [D835Y]; assay: KINOMEscan competition binding; details: compound 1.0 µM
NEK5 (human) = NEK5 (human) (UniProt Q6P3R8); assay: KINOMEscan competition binding; details: compound 1.0 µM
MYLK4 (human) = MYLK4 (human) (UniProt Q86YV6); assay: KINOMEscan competition binding; details: compound 1.0 µM
MAP2K4 (human) = MAP2K4 (human) (UniProt P45985); assay: KINOMEscan competition binding; details: compound 1.0 µM
GAK (human) = GAK (human) (UniProt O14976); assay: KINOMEscan competition binding; details: compound 1.0 µM
MYO3A (human) = MYO3A (human) (UniProt Q8NEV4); assay: KINOMEscan competition binding; details: compound 1.0 µM
ACVR1B (human) = ACVR1B (human) (UniProt P36896); assay: KINOMEscan competition binding; details: compound 1.0 µM
EPHB3 (human) = EPHB3 (human) (UniProt P54753); assay: KINOMEscan competition binding; details: compound 1.0 µM

## Nc1cc(C(F)(F)F)c(-c2cc(N3CCOCC3)nc(N3CCOCC3)n2)cn1
PDPK1 (human)
  IC50: > 10 µM
MET (human)
  IC50: > 10 µM
PRKDC (human)
  IC50: > 10 µM
AXL (human)
  IC50: > 10 µM
CSF1R (human)
  IC50: 0.582 µM
TEK (human)
  IC50: > 10 µM
KDR (human)
  IC50: > 10 µM
AKT1 (human)
  inhibition of binding: 0%
[1]
  inhibition of binding: 0%
EPHB2 (human)
  inhibition of binding: 0%
EPHA6 (human)
  inhibition of binding: 3%
PTK2B (human)
  inhibition of binding: 0%
MAP3K2 (human)
  inhibition of binding: 0%
CDK11B (human)
  inhibition of binding: 10%
ROS1 (human)
  inhibition of binding: 0%
RPS6KA4 KD1 (human)
  inhibition of binding: 4%
SGK110 (human)
  inhibition of binding: 3%
EPHA7 (human)
  inhibition of binding: 0%
[2]
  inhibition of binding: 3%
EPHA5 (human)
  inhibition of binding: 0%
MAPK1 (human)
  inhibition of binding: 0%
EPHA8 (human)
  inhibition of binding: 0%
ERN1 (human)
  inhibition of binding: 5%
MAK (human)
  inhibition of binding: 0%
EPHA4 (human)
  inhibition of binding: 2%
CDK14 (human)
  inhibition of binding: 27%
RIOK1 (human)
  inhibition of binding: 11%
MLTK (human)
  inhibition of binding: 0%
ERBB3 (human)
  inhibition of binding: 22%
RPS6KA4 KD2 (human)
  inhibition of binding: 0%
PLK1 (human)
  inhibition of binding: 30%
MKNK1 (human)
  inhibition of binding: 0%
[3]
  inhibition of binding: 12%
NEK5 (human)
  inhibition of binding: 0%
MYLK4 (human)
  inhibition of binding: 0%
MAP2K4 (human)
  inhibition of binding: 15%
GAK (human)
  inhibition of binding: 6%
MYO3A (human)
  inhibition of binding: 7%
ACVR1B (human)
  inhibition of binding: 3%
EPHB3 (human)
  inhibition of binding: 4%
